Source: ChEMBL document CHEMBL1134896, “Antileishmanial dinitroaniline sulfonamides with activity against parasite tubulin” (Bioorg Med Chem Lett, 2002)

What was measured:
Leishmania donovani [1] = test: Inhibitory activity against Leishmania donovani amastigotes; format: functional, organism-based
Leishmania donovani [2] = test: Inhibitory activity against Leishmania donovani promastigotes; format: functional, organism-based
Leishmania sp. = test: Percentage inhibition against Leishmania tubulin in vitro was determined at 20 uM; format: functional

IC50 (Leishmania donovani [1])	IC50 (Leishmania donovani [2])	SMILES	inhibition at 20 µM (Leishmania sp.)
56.9 µM	56 µM	CCCNS(=O)(=O)c1cc([N+](=O)[O-])c(N(CCC)CCC)c([N+](=O)[O-])c1	97%
	67 µM	CCCNc1c([N+](=O)[O-])cc(S(N)(=O)=O)cc1[N+](=O)[O-]	43%
	76.4 µM	CCCN(CCC)c1c([N+](=O)[O-])cc(C(N)=O)cc1[N+](=O)[O-]	34%
5.41 µM	14.7 µM	CCCN(CCC)c1c([N+](=O)[O-])cc(S(=O)(=O)Nc2ccccc2)cc1[N+](=O)[O-]	108%
	> 100 µM	NS(=O)(=O)c1cc([N+](=O)[O-])c(N2CCOCC2)c([N+](=O)[O-])c1	21%
20.1 µM	17.8 µM	CCCCN(CCCC)c1c([N+](=O)[O-])cc(S(N)(=O)=O)cc1[N+](=O)[O-]	89%
11.7 µM	12.2 µM	CCCCCCN(CCCCCC)c1c([N+](=O)[O-])cc(S(N)(=O)=O)cc1[N+](=O)[O-]	48%
	> 100 µM	CCCN(CCC)c1c([N+](=O)[O-])cc(C#N)cc1[N+](=O)[O-]	25%
	89.8 µM	CCCN(CCC)c1ccc(S(N)(=O)=O)cc1[N+](=O)[O-]	19%
	69.3 µM	CCN(CC)c1c([N+](=O)[O-])cc(S(N)(=O)=O)cc1[N+](=O)[O-]	58%
	> 100 µM	CCCN(CCC)c1c([N+](=O)[O-])cc(C(=N)NO)cc1[N+](=O)[O-]	35%
9 µM	8.02 µM	CCCCCN(CCCCC)c1c([N+](=O)[O-])cc(S(N)(=O)=O)cc1[N+](=O)[O-]	95%
	97.1 µM	NS(=O)(=O)c1cc([N+](=O)[O-])c(N2CCCC2)c([N+](=O)[O-])c1	57%
2 µM	1.61 µM	N=C(N)c1ccc(OCCCCCOc2ccc(C(=N)N)cc2)cc1 [PENTAMIDINE]	

SMILES	IC50 (Leishmania donovani [1])	IC50 (Leishmania donovani [2])	inhibition at 20 µM (Leishmania sp.)
CCCN(CCC)c1c([N+](=O)[O-])cc(S(N)(=O)=O)cc1[N+](=O)[O-] [ORYZALIN]	72.5 µM	44.1 µM	54%
